Tests used:
Assay type in all cases: functional, cell-based
SK-MEL-2 = assay: Antitumor cytotoxicity was determined against the SK-MEL-2 (human malignant melanoma) cell line; Range: 0.01 to 0.03
SK-OV-3 = assay: Antitumor cytotoxicity was determined against the SK-OV-3 (human ovary adenocarcinoma) cell line; Range: 0.01 to 0.03; conditions: SK-OV-3, Female gonad
A549 = assay: Antitumor cytotoxicity was determined against the A-549(human lung carcinoma) cell line; Range: 0.01 to 0.03
HCT-15 = assay: Antitumor cytotoxicity was determined against the HCT-15 (human colon adenocarcinoma) cell line; Range: 0.01 to 0.03

Measured: EC50

c1ccc(-c2cc(-c3ccccn3)nc(-c3ccccn3)c2)nc1
30 nM: all assays above

Reference: ChEMBL document CHEMBL1147612, “Synthesis, topoisomerase I inhibition and structure-activity relationship study of 2,4,6-trisubstituted pyridine derivatives” (Bioorg Med Chem Lett, 2004)
